Assay: refractive index (Na D-line) (dimensionless); xn = mol fraction of the nth substance listed
Details: 101 kPa, Liquid

CCCCCCn1cc[n+](C)c1.F[P-](F)(F)(F)(F)F [1-hexyl-3-methylimidazolium hexafluorophosphate] + CCCCOC(C)=O
refractive index, Standard Abbe refractometry
Details	293.15 K	298.15 K	303.15 K	308.15 K	313.15 K	318.15 K	323.15 K
x1 = 0.0956	1.40012	1.39835	1.39654	1.39469	1.39293	1.39102	1.38925
x1 = 0.1919	1.40555	1.40397	1.40209	1.40028	1.39856	1.39677	1.39495
x1 = 0.273	1.40899	1.40746	1.40564	1.40392	1.40223	1.40049	1.39879
x1 = 0.3698	1.41222	1.41064	1.40899	1.40735	1.40568	1.40401	1.40239
x1 = 0.4639	1.41432	1.41299	1.41138	1.40987	1.40837	1.40682	1.40529
x1 = 0.5701	1.41616	1.41482	1.41349	1.41215	1.41074	1.40945	1.40808
x1 = 0.6787	1.41768	1.41633	1.41519	1.41385	1.41265	1.41139	1.41024
x1 = 0.7746	1.41841	1.41727	1.41623	1.41512	1.41392	1.41269	1.41151
x1 = 0.8707	1.41937	1.41819	1.41713	1.41606	1.41477	1.41373	1.41268
x1 = 0.9354	1.41972	1.41876	1.41773	1.41651	1.41522	1.41386	1.41261
x1 = 1	1.42064	1.41935	1.41806	1.41676	1.41547	1.41417	1.41288

CCCCCCCC[n+]1ccn(C)c1.F[P-](F)(F)(F)(F)F [1-octyl-3-methylimidazolium hexafluorophosphate] + CCOC(C)=O
refractive index
Details	x1 = 0.1056	x1 = 0.2064	x1 = 0.308	x1 = 0.4094	x1 = 0.4991	x1 = 0.5916	x1 = 0.694	x1 = 0.8121	x1 = 0.8895	x1 = 1
293.15 K	1.38873	1.40004	1.40816	1.41301	1.41629	1.41842	1.4208	1.42285	1.42447	1.42649
298.15 K	1.38754	1.39899	1.40705	1.41196	1.41523	1.41771	1.41971	1.42189	1.42354	1.42512
303.15 K	1.38545	1.39759	1.40552	1.41088	1.41385	1.41655	1.41878	1.42063	1.42188	1.42376
308.15 K	1.38383	1.39634	1.40439	1.40952	1.41311	1.41557	1.41792	1.42016	1.42072	1.4224
313.15 K	1.38267	1.39498	1.40318	1.40842	1.41186	1.41447	1.41699	1.41906	1.41956	1.42103
318.15 K	1.38145	1.39381	1.40208	1.40767	1.41108	1.41348	1.41612	1.41805	1.41852	1.41967
323.15 K	1.38027	1.39276	1.40106	1.40658	1.41002	1.41266	1.41504	1.41746	1.41744	1.41831

CCCCCCCC[n+]1ccn(C)c1.F[P-](F)(F)(F)(F)F [1-octyl-3-methylimidazolium hexafluorophosphate] + CCCCOC(C)=O
refractive index
Details	x1 = 0.1078	x1 = 0.2016	x1 = 0.3056	x1 = 0.3855	x1 = 0.4815	x1 = 0.5918	x1 = 0.6857	x1 = 0.7784	x1 = 0.8946	x1 = 1
293.15 K	1.40113	1.40658	1.41215	1.41536	1.41829	1.42036	1.42188	1.42339	1.42502	1.42649
298.15 K	1.39916	1.40486	1.41053	1.41402	1.41692	1.41924	1.42067	1.42219	1.42373	1.42512
303.15 K	1.39682	1.40307	1.40886	1.41241	1.41546	1.41801	1.41931	1.42073	1.42217	1.42376
308.15 K	1.39502	1.40132	1.40721	1.41099	1.41402	1.41668	1.41801	1.41955	1.42089	1.4224
313.15 K	1.39308	1.39963	1.40556	1.40944	1.41256	1.41529	1.41687	1.41835	1.41966	1.42103
318.15 K	1.39114	1.39793	1.40399	1.40796	1.41132	1.41404	1.41575	1.41726	1.41848	1.41967
323.15 K	1.38914	1.39622	1.40245	1.40652	1.41001	1.41272	1.41456	1.41606	1.41731	1.41831

CCCCCCn1cc[n+](C)c1.F[P-](F)(F)(F)(F)F [1-hexyl-3-methylimidazolium hexafluorophosphate] + CCOC(C)=O
refractive index
Details	293.15 K	298.15 K	303.15 K	308.15 K	313.15 K	318.15 K	323.15 K
x1 = 0.09053	1.38737	1.38598	1.38515	1.38415	1.38344	1.38227	1.38202
x1 = 0.1751	1.39825	1.39706	1.39611	1.39519	1.39414	1.39389	1.39323
x1 = 0.2748	1.40432	1.40351	1.402	1.40105	1.40023	1.39983	1.3989
x1 = 0.3638	1.40809	1.40694	1.40594	1.40487	1.40397	1.40319	1.40308
x1 = 0.4747	1.41069	1.40989	1.40899	1.40784	1.40699	1.40607	1.40548
x1 = 0.5959	1.41247	1.41194	1.41159	1.41107	1.40998	1.4091	1.4082
x1 = 0.6988	1.41456	1.41432	1.41357	1.41273	1.41182	1.41087	1.40995
x1 = 0.7782	1.41641	1.41609	1.41526	1.41451	1.41389	1.41215	1.41181
x1 = 0.8784	1.41817	1.41813	1.41735	1.41622	1.41498	1.41315	1.41252
x1 = 0.9562	1.42009	1.41886	1.41756	1.41629	1.41507	1.41377	1.41258
x1 = 1	1.42064	1.41935	1.41806	1.41676	1.41547	1.41417	1.41288
